Test results published in patent US8680113B2, “BMI-1 protein expression modulators” (PTC Therapeutics, Inc., priority 2008, dated 2014).
Where a name gives a salt, the structure may show the parent alone.

Key:
Bmi-1 [1] = experiment: Cell Model Assay: Bmi-1 expression in HT1080; format: cell-based, human; conditions: HT1080 (fibrosarcoma)
Protocol: (§1) Using assay conditions known to those skilled in the art, the ability of the compounds described herein to reduce Bmi-1 expression in HT1080 (fibrosarcoma), U87-MG (glioblastoma), T98G (glioblastoma), K562 (chronic myelogenous leukemia) and KG1 (acute myelogenous leukemia) cell lines was tested (at test compound concentrations calculated from the ELISA assay data shown in Example 1) compared to puromycin as a control to provide the EC50 values shown in Table 2. The term “ND” means that data was not determined.

Bmi-1 [2] = experiment: Cell Model Assay: Bmi-1 expression in U87-MG; format: cell-based; conditions: U87-MG (glioblastoma)
Protocol: as §1

Bmi-1 [3] = experiment: Cell Model Assay: Bmi-1 expression in T98G; format: cell-based; conditions: T98G (glioblastoma)
Protocol: as §1

Bmi-1 [4] = experiment: Cell Model Assay: Bmi-1 expression in K562; format: cell-based; conditions: K562 (chronic myelogenous leukemia)
Protocol: as §1

Bmi-1 [5] = experiment: Cell Model Assay: Bmi-1 expression in KG1; format: cell-based; conditions: KG1 (acute myelogenous leukemia)
Protocol: as §1

Bmi-1 [6] = experiment: Sandwich ELISA Assay (Bmi-1 ELISA in HT-1080 cells); format: cell-based, human
In short: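 Lysate Bmi-1 was quantified against a recombinant GST-Bmi-1 standard (0-8000 pg/mL) by sandwich ELISA read at OD450 with OD570 reference. The ELISA used mouse monoclonal capture, rabbit anti-Bmi-1, HRP anti-rabbit IgG and TMB. Before lysis, HT-1080 cells seeded at 8000/well were exposed to compounds for 40-48 h at 37°C with 0.5% final DMSO.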

Compound: COc1cc(Cl)c(Nc2nc(-c3c(C)nc4ncccn34)cs2)c(Cl)c1 (as salt: HBr) [Cpd 19, N-(2,6-dichloro-4-methoxyphenyl)-4-(2-methylimidazo[1,2-a]pyrimidin-3-yl)thiazol-2-amine]
- melting point: 232 to 240 °C

Compound: COc1ccc(C[C@H](N)C(=O)N[C@H]2[C@@H](O)[C@H](n3cnc4c(N(C)C)ncnc43)O[C@@H]2CO)cc1 [Control, puromycin, reference compound]
- EC50 (Bmi-1 [1]): 450 nM
- EC50 (Bmi-1 [2]): 420 nM
- EC50 (Bmi-1 [3]): 230 nM
- EC50 (Bmi-1 [4]): 490 nM
- EC50 (Bmi-1 [5]): 1100 nM

Compound: Cc1nc2ncccn2c1-c1csc(Nc2ccc(N(C)C)cc2)n1 [Cpd 12, N,N-dimethyl-N′-(4-(2-methylimidazo[1,2-a]pyrimidin-3-yl)thiazol-2-yl)benzene-1,4-diamine]
- IC50 (Bmi-1 [6]): < 500 nM
- EC50 (Bmi-1 [1]): 39 nM
- EC50 (Bmi-1 [2]): 110 nM
- EC50 (Bmi-1 [3]): < 4 nM
- EC50 (Bmi-1 [4]): 10 nM
- EC50 (Bmi-1 [5]): 216 nM
